Assays:
[1] = tested on: post-surgery recurrence of non-small cell lung cancer; assay: Case of a patient with post-surgery recurrence of non-small cell lung cancer (Example 3); format: in vivo, human; settings: Bestatin 10 mg/day alone every day from Jan-14
Procedure: The non-small cell lung cancer patient received lung right upper lobectomy, then immunotherapy, but enlargement of the right cervical lymph node was confirmed (September 2012 (Sep-12)). Subsequently, the elevation of CEA levels in peripheral blood was confirmed.
Starting in January 2014 (Jan-14), Bestatin (10 mg/day) was administered alone every day.

[2] = tested on: post-surgery liver metastasis of colorectal cancer; assay: Case of a terminal colorectal cancer patient with post-surgery liver metastasis (Example 1); format: in vivo, human
Procedure: Post-surgery liver metastasis was confirmed in the terminal colorectal cancer patient.
Starting in March 2014 (Mar-14), Bestatin […]) was administered alone every day.

[3] = tested on: post-surgery multiple lung metastases of thyroid gland cancer; assay: Case of a patient with post-surgery multiple lung metastases of thyroid gland cancer (Example 2); format: in vivo, human
Procedure: Multiple lung metastases were confirmed in a thyroid gland cancer patient and the platelet count and the neutrophil count in peripheral blood both increased. In December 2013 (Dec-13), the […] to neutrophil count ratio (NLR) in peripheral blood was more than 5, indicating poor prognosis.
Starting in March 2014 (Mar-14), Bestatin (10 mg/day) was administered alone every day.

[4] = tested on: A549 human lung carcinoma; assay: Antitumor effect of Bestatin and gefitinib in A549 cancer-bearing mice (Example 15); format: in vivo, BALB/c nu/nu mice; settings: po, qd, 6 days/week x 3 weeks
Procedure: • [1] Production of Cancer-Bearing Mouse
A549 human lung carcinoma suspension (5×10^6 cells/100 μL PBS) was subcutaneously inoculated to BALB/c nu/nu mice (female). After cells were transplanted, mice with a tumor volume reaching about 117 mm^3 (on day 15 after the cell transplantation) were used for the following in vivo experiments, • [2] Evaluation of Antitumor Effects Attained by Combination of Bestatin and Gefitinib
Bestatin and gefitinib were respectively administered by the following doses, administration route and schedule to the above A549 cancer-bearing mice.
The antitumor effect was examined based on changes in tumor volume and changes in body weight.
The tumor volume was calculated by the following formula.
Tumor volume (mm^3)=(long side of tumor)×(short side of tumor)^2×0.5
Tumor growth inhibition (TGI) was also calculated from the tumor volume by the following formula.

[5] = Bestatin 10 mg/day alone every day from Mar-14
[6] = Bestatin 10 mg/day alone every day, May-14, two months after start

SMILES | CEA level in peripheral blood [1] | platelet count in peripheral blood [2, 5] | tumor marker CA19-9 level in peripheral blood [2, 6] | tumor marker CEA level in peripheral blood [2, 6] | CEA level after Bestatin administration was stopped ([2]; administration stopped Jul-14) | platelet count in peripheral blood after Bestatin administration was stopped ([2]; administration stopped Jul-14) | Lymphocyte in peripheral blood ([3]; 2014 Jul. 15 (After administration), Bestatin 10 mg/day alone, before administration 8%) [%] | Neutrophil in peripheral blood ([3]; 2014 Jul. 15 (After administration), Bestatin 10 mg/day alone, before administration 83%) [%] | Leukocyte in peripheral blood ([3]; 2014 Jul. 15 (After administration), Bestatin 10 mg/day alone, before administration (2014 Jan. 10) 9500) | neutrophil count in peripheral blood [3, 5] | platelet count in peripheral blood [3, 5] | TGI (%) On day 40 ([4]; G3: Bestatin 30 mg/kg alone) [%] | TGI (%) On day 40 ([4]; G2: gefitinib 10 mg/kg alone) [%]
CC(C)C[C@H](NC(=O)[C@@H](O)[C@H](N)Cc1ccccc1)C(=O)O [Bestatin, (2S)-2-[(2S,3R)-3-amino-2-hydroxy-4-phenylbutanoylamino]-4-methylpentanoic acid] | drop | started decreasing | started decreasing | started decreasing | quickly elevated again | quickly elevated again | 22 | 55 | 4900 | drops | drops | 39 | 
COc1cc2ncnc(Nc3ccc(F)c(Cl)c3)c2cc1OCCCN1CCOCC1 [gefitinib] |  |  |  |  |  |  |  |  |  |  |  |  | 31

Source: US20180256668A1, “PHARMACEUTICAL COMPOSITION FOR TREATMENT OF OR REMISSION IN ELDERLY OR TERMINAL CANCER PATIENT” (DELTA-FLY PHARMA, INC., priority 2014, published 2018)
